The record followed here is ChEMBL document CHEMBL1140592, “Identification of novel, selective and potent Chk2 inhibitors” (Bioorg Med Chem Lett, 2007).

SMILES strings stand for the structures. A value given as a limit tells only on which side of the number the result lay.

For this assay, the target named is Serine/threonine-protein kinase Chk2 (Homo sapiens, UniProt O96017). Kind of assay: Inhibition of Chk2 kinase.
Serine/threonine-protein kinase Chk2, sequence (O96017 whole entry): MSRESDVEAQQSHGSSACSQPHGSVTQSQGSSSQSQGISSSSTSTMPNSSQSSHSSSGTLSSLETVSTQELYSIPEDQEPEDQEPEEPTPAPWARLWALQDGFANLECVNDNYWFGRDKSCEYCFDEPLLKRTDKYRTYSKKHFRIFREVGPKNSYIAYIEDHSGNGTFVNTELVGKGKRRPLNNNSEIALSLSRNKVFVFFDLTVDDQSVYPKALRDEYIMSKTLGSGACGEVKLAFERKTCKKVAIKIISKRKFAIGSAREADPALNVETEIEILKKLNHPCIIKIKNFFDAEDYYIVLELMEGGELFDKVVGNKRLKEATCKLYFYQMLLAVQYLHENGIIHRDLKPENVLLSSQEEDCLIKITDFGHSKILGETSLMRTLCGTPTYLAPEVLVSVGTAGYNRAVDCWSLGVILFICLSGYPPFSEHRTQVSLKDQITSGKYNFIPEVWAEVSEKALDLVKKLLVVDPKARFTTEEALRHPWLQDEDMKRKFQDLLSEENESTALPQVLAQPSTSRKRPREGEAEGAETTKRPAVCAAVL
A word on the IC50: it is the point on the concentration scale where inhibition reaches its midpoint. Lower therefore signals greater potency in that assay. The compound `N=C(NCc1cccc2ccccc12)c1c(O)nsc1Nc1ccc(Nc2ccc(Br)cc2)cc1` displayed an IC50 of 460 nM. In turn, `CC(C)NC(=N)c1c(O)nsc1Nc1ccc(Cc2ccccc2)cc1` returned an IC50 of 8000 nM. `N=C(NCC1CCCCC1)c1c(O)nsc1Nc1ccc(C(=O)c2ccccc2)cc1`: half-maximal inhibition (IC50) was put at 5000 nM.

As to `CC(C)NC(=N)c1c(O)nsc1Nc1ccc(C2CCCCC2)cc1`, the 50% inhibitory concentration (IC50) was determined as 19000 nM.

`CC(C)NC(=N)c1c(O)nsc1Nc1ccc(Nc2ccc(Br)cc2)cc1` returned a half-maximal inhibitory concentration (IC50) of 87 nM. Next, `CC(CO)NC(=N)c1c(O)nsc1Nc1ccc(Nc2ccc(Br)cc2)cc1` (stereo not given): 140 nM; `N=C(NCCCCO)c1c(O)nsc1Nc1ccc(Nc2ccc(Br)cc2)cc1`: 310 nM. Next, `NC(=NCC1CCCCC1)c1c(Nc2ccc(-n3cccn3)cc2)s[nH]c1=O`: 40000 nM; `CC(CO)NC(=N)c1c(O)nsc1Nc1ccc(-n2cccn2)cc1` (stereo not given): more than 40000 nM; `N=C(NCC1CCCCC1)c1c(O)nsc1Nc1ccc(Cc2ccccc2)cc1`: 37000 nM.

`N=C(NCC1CCCCC1)c1c(O)nsc1Nc1ccc(Sc2ccccc2)cc1` had an IC50 of 19000 nM. Under `CC(C)NC(=N)c1c(O)nsc1Nc1ccc(Nc2ccccc2)cc1` stands 420 nM; under `CC(CO)NC(=N)c1c(O)nsc1Nc1ccc(Nc2ccccc2)cc1` (stereo not given), 460 nM; under `N=C(NCCO)c1c(O)nsc1Nc1ccc(Nc2ccccc2)cc1`, 1000 nM. With `N=C(NCC1CCCCC1)c1c(O)nsc1Nc1ccc(Nc2ccccc2)cc1`, the midpoint of inhibition, the IC50, lay at 1800 nM.

Regarding `N=C(NCCCCO)c1c(O)nsc1Nc1ccc(Nc2ccccc2)cc1`, the IC50 was 1200 nM. Compound `N=C(NCCO)c1c(O)nsc1Nc1ccc(Nc2ccc(Br)cc2)cc1` had an IC50 of 220 nM. Compound `CC(C)NC(=N)c1c(O)nsc1Nc1ccc(/N=N/c2ccccc2)cc1` displayed a half-maximal inhibitory concentration (IC50) of 11000 nM. Next, `CC(C)NC(=N)c1c(O)nsc1Nc1ccc(Oc2ccccc2)cc1`: 2300 nM; `CC(C)NC(=N)c1c(O)nsc1Nc1ccc(S(=O)(=O)c2ccccc2)cc1`: more than 40000 nM; `N=C(NCC1CCCCC1)c1c(O)nsc1Nc1ccc(/N=N/c2ccccc2)cc1`: 11000 nM. Next, `N=C(NCC1CCCCC1)c1c(O)nsc1Nc1ccc(Nc2ccc(Br)cc2)cc1`: 300 nM; `N=C(NCC(O)CO)c1c(O)nsc1Nc1ccc(Nc2ccc(Br)cc2)cc1` (stereo not given): 470 nM. Next, `N=C(NCC(O)CO)c1c(O)nsc1Nc1ccc(Nc2ccccc2)cc1` (stereo not given): 900 nM; `CCC[C@H]1CC[C@H](c2ccc(Nc3s[nH]c(=O)c3C(N)=NCC(O)CO)cc2)CC1` (stereo not given in full): 17000 nM.
